# According to patent US7476691B2, “Sulfamate benzothiophene derivatives as steroid sulfatase inhibitors” (Laboratoire Theramex, priority 2003, dated 2009):
# Where “and” joins values, the source holds several entries; their conditions need not be identical. Equal values may be shown once.
# Tested on: ovariectomized Wistar female rats
# Assay: Antiuterotrophic/antisulfatase activity: inhibition of E1S stimulated uterus weight
# Format: in vivo, rat
# Details: ovariectomized rats, E1S 50 μg/kg/day s.c., compound oral 1 mg/kg/day for 4 days
# Method: A short model, derived from Purohit's method, was developed for the evaluation in vivo of nonestrogenic steroid sulfatase inhibitors.
# Wistar female rats were ovariectomized and left to rest for 4 weeks. Prior to treatment, the absence of cyclicity was checked by vaginal smears.
# Animals were supplemented with estrone sulfate (E1S) at 50 μg/kg/day s.c., alone or combined with oral administration of potential sulfatase inhibitors, at 1 mg/kg/day for 4 days. The uteri were removed, freed of adjacent tissue and wet weighed.
# The results are expressed as % of inhibition of the E1S induced stimulation.
# The activity of Ex 55 on E1S stimulated uterus weight was evaluated in relation to the standard inhibitor 6,6,7 COUMATE from 0.03 mg/kg/day to 1 mg/kg/day p.o.
# In this study, a last administration was performed 24 hours before the necropsy for E1S and E2 serum levels assays. The uteri were removed, freed of adjacent tissue, wet weighed and immediately deep frozen until the determination of sulfatase activity.
row,Structure (SMILES),% inhibition of the E1S induced stimulation (uterus weight) [%]
1,"NS(=O)(=O)Oc1ccc2c(c1)S(=O)(=O)C(C1CCCCCCCCC1)=C2 [Ex 47, Sulfamic acid, 2-cyclodecyl-benzothiophene-6-yl-1,1-dioxide ester]",62
2,"NS(=O)(=O)Oc1ccc2c(c1)S(=O)(=O)C(CC1CCCCC1)=C2 [Ex 54, Sulfamic acid, 2-cyclohexylmethyl-benzothiophene-6-yl-1,1-dioxide ester]",49
3,"NS(=O)(=O)Oc1ccc2c(c1)S(=O)(=O)C(C1CCCCC1)=C2 [Ex 44, Sulfamic acid, 2-cyclohexyl-benzothiophene-6-yl-1,1-dioxide ester]",70
4,"NS(=O)(=O)Oc1ccc2cc(C3CCCCC3)[s+]([O-])c2c1 (stereo not drawn) [Ex 42, Sulfamic acid, 2-cyclohexyl-benzothiophene-6-yl-1-oxide ester]",38

# Tested on: not given
# Assay: not given
# Details: not given
row,Structure (SMILES),melting point [°C]
1,"CC1CCCCC1c1cc2ccc(OS(N)(=O)=O)cc2s1 (stereo not drawn) [Ex 35, Sulfamic acid, 2-(2-methylcyclohexyl)-benzothiophene-6-yl ester]",110
2,"CC1CCCCC1C1=Cc2ccc(OS(N)(=O)=O)cc2S1(=O)=O (stereo not drawn) [Ex 49, Sulfamic acid, 2-(2-methylcyclohexyl)-benzothiophene-6-yl-1,1-dioxide ester]",92
3,"NS(=O)(=O)Oc1ccc2cc(C3CCCCCCC3)sc2c1 [Ex 32, Sulfamic acid, 2-cyclooctyl-benzothiophene-6-yl ester]",126
4,"NS(=O)(=O)Oc1ccc2c3c(sc2c1)CCCC3 [Ex 64, Sulfamic acid, 1,2,3,4-tetrahydro-dibenzothiophene-7-yl ester]",165
5,"NS(=O)(=O)Oc1ccc2c(c1)S(=O)(=O)C(C1CCCCCCCCC1)=C2 [Ex 47, Sulfamic acid, 2-cyclodecyl-benzothiophene-6-yl-1,1-dioxide ester]",102
6,"CCCC1=Cc2ccc(OS(N)(=O)=O)cc2S1(=O)=O [Ex 52, Sulfamic acid, 2-propyl-benzothiophene-6-yl-1,1-dioxide ester]",159
7,"CCCCCCC1=Cc2ccc(OS(N)(=O)=O)cc2S1(=O)=O [Ex 53, Sulfamic acid, 2-hexyl-benzothiophene-6-yl-1,1-dioxide ester]",98
8,"CCCCCCc1cc2ccc(OS(N)(=O)=O)cc2s1 [Ex 39, Sulfamic acid, 2-hexyl-benzothiophene-6-yl ester]",125
9,"CC1CCC(c2cc3ccc(OS(N)(=O)=O)cc3s2)CC1 (stereo not drawn) [Ex 34, Sulfamic acid, 2-(4-methylcyclohexyl)-benzothiophene-6-yl ester]",132
10,"NS(=O)(=O)Oc1ccc2cc(C3C4CC5CC(C4)CC3C5)sc2c1 (stereo not drawn) [Ex 37, Sulfamic acid, 2-(2-adamantyl)-benzothiophene-6-yl ester]",185
11,"NS(=O)(=O)Oc1ccc2cc(C3CCCCCCCCC3)sc2c1 [Ex 33, Sulfamic acid, 2-cyclodecyl-benzothiophene-6-yl ester]",98
12,"NS(=O)(=O)Oc1ccc2c(c1)S(=O)(=O)C(CC1CCCCC1)=C2 [Ex 54, Sulfamic acid, 2-cyclohexylmethyl-benzothiophene-6-yl-1,1-dioxide ester]",132
13,"Cc1c(OS(N)(=O)=O)ccc2cc(C3CCCCCC3)sc12 [Ex 62, Sulfamic acid, 2-cycloheptyl-7-methyl-benzothiophene-6-yl ester]",107
14,"CCCc1cc2ccc(OS(N)(=O)=O)cc2s1 [Ex 38, Sulfamic acid, 2-propyl-benzothiophene-6-yl ester]",112
15,"NS(=O)(=O)Oc1ccc2cc(CC3CCCCC3)sc2c1 [Ex 40, Sulfamic acid, 2-cyclohexylmethyl-benzothiophene-6-yl ester]",115
16,"NS(=O)(=O)Oc1ccc2cc(C3CCCCCC3)sc2c1 [Ex 31, Sulfamic acid, 2-cycloheptyl-benzothiophene-6-yl ester]",132
17,"NS(=O)(=O)Oc1ccc2c(c1)S(=O)(=O)C(C1CCCCC1)=C2 [Ex 44, Sulfamic acid, 2-cyclohexyl-benzothiophene-6-yl-1,1-dioxide ester]",180
18,"NS(=O)(=O)Oc1ccc2cc(C3CCCC3)sc2c1 [Ex 30, Sulfamic acid, 2-cyclopentyl-benzothiophene-6-yl ester]",110
19,"CC1(C)CCCC1c1cc2ccc(OS(N)(=O)=O)cc2s1 (stereo not drawn) [Ex 36, Sulfamic acid, 2-(2,2-dimethylcyclopentyl)-benzothiophene-6-yl ester]",72
20,"Cc1c(OS(N)(=O)=O)ccc2c1S(=O)(=O)C(C1CCCCCC1)=C2 [Ex 65, Sulfamic acid, 2-cycloheptyl-7-methyl-benzothiophene-6-yl-1,1-dioxide ester]",90
21,"CC1(C)CCCC1C1=Cc2ccc(OS(N)(=O)=O)cc2S1(=O)=O (stereo not drawn) [Ex 50, Sulfamic acid, 2-(2,2-dimethylcyclopentyl)-benzothiophene-6-yl-1,1-dioxide ester]",172
22,"NS(=O)(=O)Oc1ccc2cc(CC3CCCCCC3)sc2c1 [Ex 41, Sulfamic acid, 2-cycloheptylmethyl-benzothiophene-6-yl ester]",90

# Tested on: prepubescent female rats
# Assay: Residual estrogenic activity in vivo (uterotrophic assay)
# Details: prepubescent female rats, oral, 1 mg/rat/day for 3 days
# Method: These compounds were checked for residual estrogenic activity in vivo in the classical uterotrophic assay after 3-day administration by oral route in prepubescent female rats.
# Prepubescent female rats were orally treated at 1 mg/rat/day for 3 days. On the day following the last treatment, uteri were removed and wet weight were recorded.
# The results are expressed as % of stimulation of uterus weight in comparison with controls.
row,Structure (SMILES),% stimulation of uterus weight in comparison with controls [%]
1,"CC1CCCCC1C1=Cc2ccc(OS(N)(=O)=O)cc2S1(=O)=O (stereo not drawn) [Ex 49, Sulfamic acid, 2-(2-methylcyclohexyl)-benzothiophene-6-yl-1,1-dioxide ester]",8
2,"NS(=O)(=O)Oc1ccc2c(c1)S(=O)(=O)C(C1CCCCCCCCC1)=C2 [Ex 47, Sulfamic acid, 2-cyclodecyl-benzothiophene-6-yl-1,1-dioxide ester]",4
3,"NS(=O)(=O)Oc1ccc2c(c1)S(=O)(=O)C(CC1CCCCC1)=C2 [Ex 54, Sulfamic acid, 2-cyclohexylmethyl-benzothiophene-6-yl-1,1-dioxide ester]",6
4,"NS(=O)(=O)Oc1ccc2c(c1)S(=O)(=O)C(C1CCCCC1)=C2 [Ex 44, Sulfamic acid, 2-cyclohexyl-benzothiophene-6-yl-1,1-dioxide ester]",0
5,"NS(=O)(=O)Oc1ccc2cc(C3CCCCC3)[s+]([O-])c2c1 (stereo not drawn) [Ex 42, Sulfamic acid, 2-cyclohexyl-benzothiophene-6-yl-1-oxide ester]",0
6,"CC1(C)CCCC1C1=Cc2ccc(OS(N)(=O)=O)cc2S1(=O)=O (stereo not drawn) [Ex 50, Sulfamic acid, 2-(2,2-dimethylcyclopentyl)-benzothiophene-6-yl-1,1-dioxide ester]",24

# Molecular target: T1, estrone sulfatase (Homo sapiens, UniProt P08842)
# T1 sequence (P08842 22-583): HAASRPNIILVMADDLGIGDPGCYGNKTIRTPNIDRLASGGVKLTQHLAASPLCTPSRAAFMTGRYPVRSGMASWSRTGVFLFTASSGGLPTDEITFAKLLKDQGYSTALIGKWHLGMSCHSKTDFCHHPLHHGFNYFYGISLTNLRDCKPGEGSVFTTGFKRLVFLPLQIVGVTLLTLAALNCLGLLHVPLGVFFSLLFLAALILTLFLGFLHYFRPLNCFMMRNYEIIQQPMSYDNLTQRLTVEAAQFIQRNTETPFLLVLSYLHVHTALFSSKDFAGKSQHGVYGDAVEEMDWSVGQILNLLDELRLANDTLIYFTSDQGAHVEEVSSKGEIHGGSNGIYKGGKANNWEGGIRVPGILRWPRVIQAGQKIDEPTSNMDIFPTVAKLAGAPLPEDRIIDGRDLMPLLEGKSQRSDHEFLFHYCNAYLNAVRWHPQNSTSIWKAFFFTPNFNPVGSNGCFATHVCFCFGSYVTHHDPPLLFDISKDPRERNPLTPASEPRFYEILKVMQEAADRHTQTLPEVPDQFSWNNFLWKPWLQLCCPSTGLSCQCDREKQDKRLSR
# Assay: Estrone sulfatase whole-cell assay on JEG-3 cells
# Format: cell-based
# Set-up: The JEG-3 cell line, derived from a human placental choriocarcinoma, is spontaneously very rich in human estrone sulfatase; endogenous in cells; host or cells: JEG-3 (human placental choriocarcinoma), intact cells
# Details: 4 h treatment, 3H-E1S, read-out: IC50 (nM) ± S.E.M., inhibition of estrone sulfatase
# Method: (§1) Two in vitro models on whole cells were used. […] Moreover, these cells were used in the in vivo model of hormono-dependent induced xenografts.
# (§2) Estrone Sulfatase Assay on Cells
# (§3) Whole-cell assays were performed as originally described by Duncan et al. (Cancer Res., 1993, 53: 298-303) on intact MCF-7 cell monolayers. Assays were carried out with cells in logarithmic growth phase, on 96-well (JEG-3) or 24-well (MCF-7) microplates. Twenty-four hours (JEG-3) or 72 h (MCF-7) before studies, cells were seeded in decomplemented fetal calf serum (dFCS) supplemented medium. Then, the seeding medium was removed and the cells were rinsed with PBS to eliminate any trace of dFCS. Then, ^3H-E1S was added, followed by test compounds ranging from 10^−12 M to 10^−5 M. After 4 h (JEG-3) or 20 h (MCF-7) of treatment, the medium was transferred into either 96-deep-well microplates (JEG-3) or plastic tubes (MCF-7) and centrifuged at 200×g for 10 min to pellet cells before toluene extraction. A fraction of medium was used for toluene extraction in order to separate conjugated substrate and non-conjugated products. The radioactivity in the toluene phase was measured by liquid scintillation counting (LSC). Finally, estrone sulfatase activity was expressed in pmoles of ^3H-E1+^3H-E2 formed per 4 or 20 hours and per μg DNA and estrone sulfatase inhibition in percentage of control activity without inhibitor.
row,Structure (SMILES),IC50
1,"CC1CCCCC1c1cc2ccc(OS(N)(=O)=O)cc2s1 (stereo not drawn) [Ex 35, Sulfamic acid, 2-(2-methylcyclohexyl)-benzothiophene-6-yl ester]",147 ± 16.3 nM
2,"NS(=O)(=O)Oc1ccc2cc(C3CCCCCCC3)sc2c1 [Ex 32, Sulfamic acid, 2-cyclooctyl-benzothiophene-6-yl ester]",434 ± 94.8 nM
3,"NS(=O)(=O)Oc1ccc2c3c(sc2c1)CCCC3 [Ex 64, Sulfamic acid, 1,2,3,4-tetrahydro-dibenzothiophene-7-yl ester]",566 ± 130 nM
4,"NS(=O)(=O)Oc1ccc2c(c1)S(=O)(=O)C(C1CCCCCCCCC1)=C2 [Ex 47, Sulfamic acid, 2-cyclodecyl-benzothiophene-6-yl-1,1-dioxide ester]",52.1 ± 4.4 nM
5,"CCCC1=Cc2ccc(OS(N)(=O)=O)cc2S1(=O)=O [Ex 52, Sulfamic acid, 2-propyl-benzothiophene-6-yl-1,1-dioxide ester]",24.7 ± 5 nM
6,"CCCCCCC1=Cc2ccc(OS(N)(=O)=O)cc2S1(=O)=O [Ex 53, Sulfamic acid, 2-hexyl-benzothiophene-6-yl-1,1-dioxide ester]",12.5 ± 3.3 nM
7,"C[C@]12CCC3c4ccc(OS(N)(=O)=O)cc4CCC3C1CCC2=O (stereo partly drawn) [EMATE, estrone-3-sulfamate, reference compound]",3.2 ± 0.2 nM
8,"CC1CCC(c2cc3ccc(OS(N)(=O)=O)cc3s2)CC1 (stereo not drawn) [Ex 34, Sulfamic acid, 2-(4-methylcyclohexyl)-benzothiophene-6-yl ester]",318 ± 42.9 nM
9,"NS(=O)(=O)Oc1ccc2cc(C3C4CC5CC(C4)CC3C5)sc2c1 (stereo not drawn) [Ex 37, Sulfamic acid, 2-(2-adamantyl)-benzothiophene-6-yl ester]",92.4 ± 15.6 nM
10,"NS(=O)(=O)Oc1ccc2cc(C3CCCCCCCCC3)sc2c1 [Ex 33, Sulfamic acid, 2-cyclodecyl-benzothiophene-6-yl ester]",744 ± 140 nM
11,"NS(=O)(=O)Oc1ccc2c(c1)S(=O)(=O)C(CC1CCCCC1)=C2 [Ex 54, Sulfamic acid, 2-cyclohexylmethyl-benzothiophene-6-yl-1,1-dioxide ester]",~10 nM and 10 nM
12,"NS(=O)(=O)Oc1ccc2cc(C3CCCCCC3)sc2c1 [Ex 31, Sulfamic acid, 2-cycloheptyl-benzothiophene-6-yl ester]",102 ± 58 nM
13,"NS(=O)(=O)Oc1ccc2c(c1)S(=O)(=O)C(C1CCCCC1)=C2 [Ex 44, Sulfamic acid, 2-cyclohexyl-benzothiophene-6-yl-1,1-dioxide ester]",10.9 ± 2.6 nM
14,"NS(=O)(=O)Oc1ccc2cc(C3CCCC3)sc2c1 [Ex 30, Sulfamic acid, 2-cyclopentyl-benzothiophene-6-yl ester]",78.8 ± 39.8 nM
15,"NS(=O)(=O)Oc1ccc2cc(C3CCCCC3)[s+]([O-])c2c1 (stereo not drawn) [Ex 42, Sulfamic acid, 2-cyclohexyl-benzothiophene-6-yl-1-oxide ester]",7 ± 1.2 nM
16,"CC1(C)CCCC1c1cc2ccc(OS(N)(=O)=O)cc2s1 (stereo not drawn) [Ex 36, Sulfamic acid, 2-(2,2-dimethylcyclopentyl)-benzothiophene-6-yl ester]",128 ± 14.2 nM
17,"Cc1c(OS(N)(=O)=O)ccc2c1S(=O)(=O)C(C1CCCCCC1)=C2 [Ex 65, Sulfamic acid, 2-cycloheptyl-7-methyl-benzothiophene-6-yl-1,1-dioxide ester]",31.7 ± 9.9 nM

# Molecular target: T1, estrone sulfatase
# Assay: Estrone sulfatase whole-cell assay on MCF-7 cells
# Format: cell-based
# Set-up: Whole-cell assays were performed as originally described by Duncan et al. (Cancer Res., 1993, 53: 298-303) on intact MCF-7 cell monolayers; endogenous in cells; host or cells: MCF-7 (human breast adenocarcinoma), intact monolayers
# Details: 20 h treatment, 3H-E1S, read-out: IC50 (nM) ± S.E.M., inhibition of estrone sulfatase
# Method: as §1, §2, §3
row,Structure (SMILES),IC50 [nM]
1,"NS(=O)(=O)Oc1ccc2c(c1)S(=O)(=O)C(C1CCCCCCCCC1)=C2 [Ex 47, Sulfamic acid, 2-cyclodecyl-benzothiophene-6-yl-1,1-dioxide ester]",0.08 ± 0.01
2,"C[C@]12CCC3c4ccc(OS(N)(=O)=O)cc4CCC3C1CCC2=O (stereo partly drawn) [EMATE, estrone-3-sulfamate, reference compound]",0.06 ± 0.01
3,"NS(=O)(=O)Oc1ccc2c(c1)S(=O)(=O)C(CC1CCCCC1)=C2 [Ex 54, Sulfamic acid, 2-cyclohexylmethyl-benzothiophene-6-yl-1,1-dioxide ester]",0.1 ± 0.03
4,"NS(=O)(=O)Oc1ccc2c(c1)S(=O)(=O)C(C1CCCCC1)=C2 [Ex 44, Sulfamic acid, 2-cyclohexyl-benzothiophene-6-yl-1,1-dioxide ester]",0.24 ± 0.05
5,"NS(=O)(=O)Oc1ccc2cc(C3CCCCC3)[s+]([O-])c2c1 (stereo not drawn) [Ex 42, Sulfamic acid, 2-cyclohexyl-benzothiophene-6-yl-1-oxide ester]",0.16 ± 0.03
